In ChEMBL document CHEMBL1136385, “Synthesis and pharmacological activity of fluorescent histamine H2 receptor antagonists related to potentidine” (Bioorg Med Chem Lett, 2003):

molecular target: Histamine H2 receptor (Cavia porcellus, UniProt P47747); test: Histamine H2 receptor antagonistic activity on the isolated spontaneously beating guinea pig right atrium; type: functional, tissue-based, Cardiac atrium; settings: read-out: pA2 (converted)
Sequence (P47747 whole entry): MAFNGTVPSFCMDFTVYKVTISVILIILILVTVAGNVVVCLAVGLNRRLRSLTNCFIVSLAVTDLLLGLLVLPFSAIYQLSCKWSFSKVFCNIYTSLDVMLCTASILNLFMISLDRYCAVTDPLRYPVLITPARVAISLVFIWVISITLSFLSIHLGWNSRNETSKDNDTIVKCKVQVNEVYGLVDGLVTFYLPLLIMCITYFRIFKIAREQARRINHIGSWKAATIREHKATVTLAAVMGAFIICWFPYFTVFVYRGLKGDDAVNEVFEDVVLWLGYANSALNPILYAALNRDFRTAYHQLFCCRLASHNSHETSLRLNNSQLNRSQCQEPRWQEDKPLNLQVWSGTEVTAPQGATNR

SMILES | Kb [nM]
CC(=O)c1ccc2n(c1=O)[C@H](COC(=O)CCC(=O)NCCCOc1cccc(CN3CCCCC3)c1)Cc1c-2[nH]c2ccccc12 | 1820
N#CN/C(=N\CCNC(=O)CCCCCNc1ccc([N+](=O)[O-])c2nonc12)NCCCOc1cccc(CN2CCCCC2)c1 | 25.7
N#CN=C(NCCCCCCCCNc1ccc([N+](=O)[O-])c2n[o+][n-]c12)NCCCOc1cccc(CN2CCCCC2)c1 | 11
N#CN/C(=N\CCN)NCCCOc1cccc(CN2CCCCC2)c1 | 1100
NC(N)=Nc1nc(CSCCC(N)=NS(N)(=O)=O)cs1 [FAMOTIDINE] | 18.2
CN/C(=C/[N+](=O)[O-])NCCSCc1ccc(CN(C)C)o1 [RANITIDINE] | 170
CC(=O)OCC(=O)NCCCOc1cccc(CN2CCCCC2)c1 [ROXATIDINE ACETATE] | 38.9

Now from value to molecule:

Kb [nM] | SMILES
1950 | CN(C)c1cccc2c(S(=O)(=O)NCC/N=C(\NC#N)NCCCOc3cccc(CN4CCCCC4)c3)cccc12
37.2 | N#CN/C(=N\CCCNc1ccc([N+](=O)[O-])c2nonc12)NCCCOc1cccc(CN2CCCCC2)c1
8910 | N#CN/C(=N\CCCCNC(=O)c1ccc(C2c3ccc(O)cc3OC3=CC(=O)C=CC32)c(C(=O)O)c1)NCCCOc1cccc(CN2CCCCC2)c1 (stereo not given)
66100 | N#CN/C(=N\CCNC(=O)c1ccc(C2c3ccc(O)cc3OC3=CC(=O)C=CC32)c(C(=O)O)c1)NCCCOc1cccc(CN2CCCCC2)c1 (stereo not given)
44700 | N#CN/C(=N\CCNC(=O)c1ccc(C(=O)O)c(C2c3ccc(O)cc3OC3=CC(=O)C=CC32)c1)NCCCOc1cccc(CN2CCCCC2)c1 (stereo not given)
32.4 | N#CN/C(=N\CCCCCCNc1ccc([N+](=O)[O-])c2nonc12)NCCCOc1cccc(CN2CCCCC2)c1
182 | N#CN/C(=N\CCNC(=O)c1c2ccccc2nc2ccccc12)NCCCOc1cccc(CN2CCCCC2)c1
10000 | N#CN/C(=N\CCCCNC(=O)c1ccc(C(=O)O)c(C2c3ccc(O)cc3OC3=CC(=O)C=CC32)c1)NCCCOc1cccc(CN2CCCCC2)c1 (stereo not given)
